According to ChEMBL document CHEMBL3044732, “Pyrazolecarboxylic acid derivative induces systemic acquired resistance in tobacco” (2003):
Active and inactive are the calls of the source.

Tests used:
[1] = tested on: Nicotiana tabacum; assay: Induction of N-gene mediated systemic acquired resistance against TMV in transgenic Nicotiana tabacum cv. Xanthi nc (tobacco) expressing bacterial NahG assessed as decrease in lesion size at 0.1 to 2 mg/pot applied by soil-drench 5 days prior to infection measured after 5 days relative to control; type: functional, organism-based
[2] = tested on: Nicotiana tabacum; assay: Induction of systemic acquired resistance in Nicotiana tabacum cv. Xanthi nc (tobacco) assessed as increase in PR1 mRNA level at 1 to 2 mg/pot applied as soil-drench measured after 4 days by Northern blot analysis relative to control; type: functional, organism-based
[3] = tested on: Nicotiana tabacum; assay: Induction of N-gene mediated systemic acquired resistance against TMV in Nicotiana tabacum cv. Xanthi nc (tobacco) assessed as lesion size at 1 mg/pot applied by soil-drench 5 days prior to infection measured after 5 days relative to control; type: functional
[4] = tested on: Nicotiana tabacum; assay: Induction of systemic acquired resistance in Nicotiana tabacum cv. Xanthi nc (tobacco) assessed as increase in PR1 mRNA level at 1 mg/pot applied as soil-drench measured after 24 hr by Northern blot analysis relative to control; type: functional, organism-based
[5] = tested on: Nicotiana tabacum; assay: Induction of systemic acquired resistance in Nicotiana tabacum cv. Xanthi nc (tobacco) assessed as increase in PR1 mRNA level at 0.01 to 0.5 mg/ml applied as foliar spray measured after 4 days by Northern blot analysis relative to control; type: functional, organism-based
[6] = tested on: Nicotiana tabacum; assay: Induction of N-gene mediated systemic acquired resistance against TMV in Nicotiana tabacum cv. Xanthi nc (tobacco) assessed as lesion size at 10 mg/pot applied by soil-drench 5 days prior to infection measured after 5 days relative to control; type: functional
[7] = tested on: Nicotiana tabacum; assay: Induction of systemic acquired resistance against Pseudomonas syringae pv. tabaci in Nicotiana tabacum cv. Xanthi nc (tobacco) assessed as decrease in Nicotiana tabacum (tobacco) wildfire disease symptoms at 1 to 2 mg/pot applied as soil-drench 5 days prior to infection measured after 3 days relative to control; type: functional, organism-based
[8] = tested on: Nicotiana tabacum; assay: Induction of systemic acquired resistance in transgenic Nicotiana tabacum cv. Xanthi nc (tobacco) expressing bacterial NahG assessed as increase in PR1 mRNA level at 0.01 to 0.5 mg/ml applied as foliar spray measured after 4 days by Northern blot analysis relative to control; type: functional, organism-based
[9] = tested on: Nicotiana tabacum; assay: Induction of systemic acquired resistance in Nicotiana tabacum cv. Xanthi nc (tobacco) assessed as effect on total salicylic acid level in leaves at 1 mg/pot applied as soil-drench measured up to 7 days by fluorometric analysis relative to control; type: functional, organism-based
[10] = tested on: Nicotiana tabacum; assay: Induction of systemic acquired resistance in Nicotiana tabacum cv. Xanthi nc (tobacco) assessed as increase in PR5 mRNA level at 0.01 to 0.5 mg/ml applied as foliar spray measured after 4 days by Northern blot analysis relative to control; type: functional, organism-based
[11] = tested on: Nicotiana tabacum; assay: Induction of systemic acquired resistance in Nicotiana tabacum cv. Xanthi nc (tobacco) assessed as increase in PR5 mRNA level at 1 to 2 mg/pot applied as soil-drench measured after 4 days by Northern blot analysis relative to control; type: functional, organism-based
[12] = tested on: Pseudomonas amygdali pv. tabaci; assay: Antibacterial activity against Pseudomonas syringae pv. tabaci up to 500 ug/ml; type: functional, organism-based
[13] = tested on: Nicotiana tabacum; assay: Induction of systemic acquired resistance in Nicotiana tabacum cv. Xanthi nc (tobacco) assessed as increase in PR2 mRNA level at 1 to 2 mg/pot applied as soil-drench measured after 4 days by Northern blot analysis relative to control; type: functional, organism-based
[14] = tested on: Nicotiana tabacum; assay: Induction of systemic acquired resistance against Pseudomonas syringae pv. tabaci in transgenic Nicotiana tabacum cv. Xanthi nc (tobacco) expressing bacterial NahG assessed as inhibition of bacterial growth in infected tissues at 1 to 2 mg/pot applied as soil-drench 5 days prior to infection measured after 3 days relative to control; type: functional, organism-based
[15] = tested on: Nicotiana tabacum; assay: Induction of N-gene mediated systemic acquired resistance against TMV in Nicotiana tabacum cv. Xanthi nc (tobacco) assessed as lesion size at 0.1 mg/pot applied by soil-drench 5 days prior to infection measured after 5 days relative to control; type: functional
[16] = tested on: Nicotiana tabacum; assay: Induction of systemic acquired resistance against Oidium in Nicotiana tabacum cv. Xanthi nc (tobacco) assessed as decrease in lesion size applied as soil-drench 5 days prior to infection measured after 5 days; type: functional, organism-based
[17] = tested on: Nicotiana tabacum; assay: Induction of systemic acquired resistance against Pseudomonas syringae pv. tabaci in Nicotiana tabacum cv. Xanthi nc (tobacco) assessed as inhibition of bacterial growth in infected tissues at 1 to 2 mg/pot applied as soil-drench 5 days prior to infection measured after 3 days relative to control; type: functional, organism-based
[18] = tested on: Nicotiana tabacum; assay: Induction of systemic acquired resistance in Nicotiana tabacum cv. Xanthi nc (tobacco) assessed as increase in PR2 mRNA level at 0.01 to 0.5 mg/ml applied as foliar spray measured after 4 days by Northern blot analysis relative to control; type: functional, organism-based
[19] = tested on: Nicotiana tabacum; assay: Induction of systemic acquired resistance in Nicotiana tabacum cv. Xanthi nc (tobacco) assessed as effect on free salicylic acid level in leaves at 1 mg/pot applied as soil-drench measured up to 7 days by fluorometric analysis relative to control; type: functional, organism-based
[20] = tested on: Nicotiana tabacum; assay: Induction of systemic acquired resistance in transgenic Nicotiana tabacum cv. Xanthi nc (tobacco) expressing bacterial NahG assessed as increase in PR1 mRNA level at 1 to 2 mg/pot applied as soil-drench measured after 4 days by Northern blot analysis relative to control; type: functional, organism-based
[21] = tested on: Nicotiana tabacum; assay: Induction of N-gene mediated systemic acquired resistance against TMV in Nicotiana tabacum cv. Xanthi nc (tobacco) assessed as decrease in lesion size at 0.1 mg/pot applied by soil-drench 5 days prior to infection measured after 5 days relative to control; type: functional, organism-based

Measured: Activity

Cn1nc(Cl)cc1C(=O)O [3-CHLORO-1-METHYL-1H-PYRAZOLE-5-CARBOXYLIC ACID]
<10%: [3] | [6]
inactive: [9] | [12] | [19]
active: [1] | [2] | [4] | [5] | [7] | [8] | [10] | [11] | [13] | [14] | [16] Dose-dependent effect | [17] | [18] | [20]
50%: [15]

CSC(=O)c1cccc2nnsc12
active: [21] | [16] Dose-dependent effect
